Measured values published in PMC12490239, “Combining BET inhibition with SMAC mimetics restricts tumor growth and triggers immune surveillance in preclinical cancer models” (Cell Reports Medicine, 2025).

What was measured:
Assay in all cases: cells
Parameters in all cases: CellTiter-Glo 2.0 luminescence proliferation/viability assay, single agents, human tumour cell line panel
CCK81 = details: 96 h; single agent; read-out: IC50 SMACm
How it was run: (§1)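 Human tumour cell lines were seeded into assay plates and held at 37°C with 5% CO2 for twenty-four hours, then exposed in triplicate to rising concentrations of the SMAC mimetic, from 4.5 nM to 10 μM, with DMSO as control. After 96 h, viability was read as CellTiter-Glo2.0 luminescence to derive single-agent IC50 values.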

GSU = details: 96 h; single agent; read-out: IC50 SMACm
How it was run: as §1

HARA = details: 96 h; single agent; read-out: IC50 SMACm
How it was run: as §1

HCC2998 = details: Homo sapiens, HCC 2998, 96 h; single agent; read-out: IC50 SMACm
How it was run: as §1

HT-29 = details: Homo sapiens, HT-29, 96 h; single agent; read-out: IC50 SMACm
How it was run: as §1

HUTU80 = details: Homo sapiens, HuTu80, 96 h; single agent; read-out: IC50 SMACm
How it was run: as §1

LK-2 = details: Homo sapiens, LK-2, 96 h; single agent; read-out: IC50 SMACm
How it was run: as §1

NCI-H1792 = details: Homo sapiens, NCI-H1792, 96 h; single agent; read-out: IC50 SMACm
How it was run: as §1

NCI-H2122 = details: Homo sapiens, NCI-H2122, 96 h; single agent; read-out: IC50 SMACm
How it was run: as §1

NCI-H2228 = details: Homo sapiens, NCI-H2228, 96 h; single agent; read-out: IC50 SMACm
How it was run: as §1

NCI-H596 = details: Homo sapiens, NCI-H596, 96 h; single agent; read-out: IC50 SMACm
How it was run: as §1

Panc 04.03 = details: Homo sapiens, Panc 04.03, 96 h; single agent; read-out: IC50 SMACm
How it was run: as §1

SNU1411 = details: 96 h; single agent; read-out: IC50 SMACm
How it was run: as §1

SW1116 = details: Homo sapiens, SW 1116, 96 h; single agent; read-out: IC50 SMACm
How it was run: as §1

SW620 = details: Homo sapiens, SW-620, 96 h; single agent; read-out: IC50 SMACm
How it was run: as §1

CN[C@@H](C)C(=O)Nc1ccc(-c2c(-c3cccnc3OC)nc3cc(C)ccn23)c(C#Cc2ccc3c(C)nccc3c2)n1 [SMACm, BI 891065]
IC50 (CCK81): 7.34 µM
IC50 (GSU): 5.68 µM
IC50 (HARA): 3.97 µM
IC50 (HCC2998): 3.06 µM
IC50 (HT-29): 4.24 µM
IC50 (HUTU80): 1.36 µM
IC50 (LK-2): 4.15 µM
IC50 (NCI-H1792): 4.79 µM
IC50 (NCI-H2122): 5.15 µM
IC50 (NCI-H2228): 4.44 µM
IC50 (NCI-H596): 4.41 µM
IC50 (Panc 04.03): 4.68 µM
IC50 (SNU1411): 4.87 µM
IC50 (SW1116): 4.51 µM
IC50 (SW620): 4.46 µM
